# Data reported in patent US20040043047A1, “Cosmetic or dermatological compositions containing at least one substance for increasing the functionality and/or expression of the CD44 membrane receptors of skin cells” (priority 1999, published 2004).
# Where two headings read alike, the source gives them in different places. Marks after values point to notes of the source that are not given here.
# Key:
# CD44 receptor = experiment: Functionality of the CD44 receptor: hyaluronic acid binding by keratinocytes after 48 hours of treatment, normalized to cellular DNA (protocol II-9); assay type: cell-based, human; conditions: 0.22 mM
# Method: The products whose activity on the expression of the CD44 receptor it is desired to evaluate are added to the culture medium 24 hours after inoculation of the cells. To do this, the inoculation medium is removed and replaced with an identical medium containing the test substance. The incubation then continues for 48 hours. Controls are carried out in the absence of the products to be evaluated, and in the presence of the excipient which was used to dissolve them. All the factors are otherwise equal.
# 9—Measurement of the functionality of the CD44 receptor.
# (§1) The values thus obtained are normalized, taking account of the amount of cellular material present in the wells. To do this, the cellular DNA content is measured by the DAPI method (see protocol below).
# III—Quantification of the Cellular DNA with […] Dihydrochloride (DAPI)
# The quantification of the cellular DNA may be carried out directly on the cultures after quantification of the CD44 expression.
# 30 μl of methanol at −20° C. are added to each well for 1 min.
# After rinsing twice with PBS, a 20 μg/ml DAPI solution is added over 15 minutes at ambient temperature and in darkness.
# 3—Fluorescence Quantification:
# After rinsing twice with PBS, the fluorescence present in the wells is read with 50 μl of PBS at λ excitation=355 nm and λemission=460 nm.
# CD44 = experiment: Expression of the hyaluronic acid receptor (CD44) at the surface of keratinocytes, anti-CD44 antibody labelling normalized to cellular DNA (protocol II); assay type: cell-based, human; conditions: 0.22 mM
# Method: II—Measurement of the Expression of the Hyaluronic Acid Receptor (CD44) at the Surface of Keratinocytes
# Steps 1 and 2 are identical to steps 1 and 2 of I.
# 3—Binding of the cells to 2% paraformaldehyde in PBS containing calcium and magnesium for 5 minutes at ambient temperature.
# 4—Saturation of the Nonspecific Antigen-Antibody Binding Sites:
# After rinsing twice with PBS, the cells are incubated with PBS saturation medium with calcium and magnesium supplemented with 5% v/v of calf serum and 0.05% w/v of sodium azide, for 1 hour at ambient temperature. […]
# 7—Fluorescence Quantification:
# After rinsing twice with the saturation medium, the fluorescence present in the wells is read with 50 μl of PBS at λ excitation=544 nm and k emission=590 nm. […]
# The products whose activity on the expression of the CD44 receptor it is desired to evaluate are added to the culture medium 24 hours after inoculation of the cells. […] Controls are carried out in the absence of the products to be evaluated, and in the presence of the excipient which was used to dissolve them. […]
# as §1
# III—Quantification of the Cellular DNA with […] Dihydrochloride (DAPI) […]
# 3—Fluorescence Quantification: […]
# human keratinocytes = conditions: for Fluorescence measured (FU) Mean: Table III; for Amount of fluorescence measured compared with calcium chloride at equivalent molarity: 5 and 10 mM
# Method: I-Measurement of the Amount of Haluronic Acid Bound to the Surface of Keratinocytes
# The following steps are performed:
# 15,000 human keratinocytes are inoculated in culture wells (96-well plates) in a K-SFM medium (Gibco).
# 2—Production of Confluent Cultures:
# Incubation of the cultures for 72 hours at 37° C. under a humidity-saturated atmosphere, with 5% CO2, with renewal of the culture medium after 48 h.
# 3—Binding of Hyaluronic Acid:
# Incubation of the cells for 4 hours at 4° C. with hyaluronic acid covalently bonded to a fluorochrome, […] (HA-FA), synthesized in the laboratory according to the technique described in “Preparation and properties of fluoresceine-labelled hyaluronate; carbohydrate research, 1975, Vol. 44, pp. 251-257”, prepared in K-SFM containing 0.2% sodium azide.
# 4—Evaluation of the Activity of the Test Products:
# The products for which it is desired to evaluate the action on the amount of HA-FA bound by keratinocytes are added to the incubation medium at the start of incubation. Controls are carried out in the absence of the products to be evaluated and in the presence of their excipient which was used to dissolve them.
# 5—Nonspecific Binding of HA-FA.
# In order to determine the nonspecific labelling, the same experimental conditions as in step 3 are rigorously used, but with the addition of 200 times more hyaluronic acid not labelled with a fluorochrome.
# 6—Fluorescence Quantification:
# After the HA-FA binding medium has been removed, two rinses with PBS are carried out, after which the fluorescence bound to the keratinocytes is measured at an excitation wavelength λex 485 nm and an emission wavelength λem=538 nm.
# 7—Expressing the Results:
# The results are expressed in fluorescence units (“specific fluorescence”), with the nonspecific fluorescence being deducted (see 5-).
# To do this, the fluorescence values measured are reduced to the cellular DNA content, carried out according to the DAPI method (see III-).
compound,measurement,setting,value
"CC(O)C(=O)[O-].[Na+] (centres unmarked) [Sodium lactate, sodium lactate]",Binding of hyaluronic acid to the surface of human keratinocytes Binding (FU)/cellular DNA (FU) Mean,"CD44 receptor; 48 hours of treatment, control 59 ± 8.5",105 ± 24
same,Binding of hyaluronic acid to the surface of human keratinocytes % increase,"CD44 receptor; 48 hours, versus 0 mM control",78%
same,Expression of CD44 at the surface of human keratinocytes % increase,"CD44; 48 hours, versus 0 mM control",32%
same,Expression of CD44 at the surface of human keratinocytes CD44 (FU)/cellular DNA (FU) labelling Mean,"CD44; cells treated for 48 hours, control 189 ± 28",249 ± 31
O=C([O-])[C@H](O)[C@@H](O)[C@H](O)[C@H](O)CO.[Na+] [sodium gluconate],Fluorescence measured (FU) Mean,human keratinocytes; sodium gluconate 10 mM with CaCl2 2.5 mM,27 FU
same,Fluorescence measured (FU) Mean,human keratinocytes; sodium gluconate 10 mM with CaCl2 5 mM,84* FU
same,Fluorescence measured (FU) Mean,human keratinocytes; sodium gluconate 10 mM with CaCl2 10 mM,"2,186* FU"
same,Fluorescence measured (FU) Mean,"human keratinocytes; sodium gluconate 10 mM, CaCl2 0 mM",6 FU
same,"Increase of the effects of calcium on hyaluronic acid binding, factor",human keratinocytes; relatively optimized conditions (10 mM CaCl2 / 2.5 mM sodium gluconate),≥ 12
calcium gluconate,Amount of fluorescence measured compared with calcium chloride at equivalent molarity,human keratinocytes,significantly greater
manganese chloride [MnCl2],Amount of fluorescence measured compared with calcium chloride at equivalent molarity,human keratinocytes,significantly greater
